Data reported in patent US20070265271A1, “Novel Diazabicyclic Aryl Derivatives as Cholinergy Ligands” (priority 2004, published 2007).

Compared with `CN1C2CCC1CN(C(=O)c1ccc(-c3cccc(C(F)(F)F)c3)o1)C2.O=C(O)/C=C/C(=O)O`, `CC(=O)Nc1cccc(-c2ccc(C(=O)N3CC4CCC(C3)N4C)o2)c1.O=C(O)/C=C/C(=O)O` is higher in melting point: 108.7 to 109.4 °C for the first, 189 to 193 °C for the second.

First: CN1C2CCC1CN(C(=O)c1cc3ccccc3o1)C2.O=C(O)/C=C/C(=O)O
Second: CN1C2CCC1CN(C(=O)c1ccc(-c3ccccc3)cc1)C2.O=C(O)/C=C/C(=O)O
The melting point of the first is lower: 150 to 155 °C for the first, 197 to 207 °C for the second.
